Data on three compounds can be found in patent US12251444B2, “Compositions and methods for delivering an agent to a wound” (priority 2009, dated 2025).

For one series, the system named is Pseudomonas aeruginosa. Kind of series: Turbidity/growth assay of sponge elution samples against Pseudomonas aeruginosa. Format: cell-based. Particulars: eluate of amikacin-loaded 61/71 DDA chitosan sponge. On the procedure:
To determine whether agents eluted from the sponges could be used to inhibit bacterial growth, zone of inhibition (ZOI) studies were carried out (FIGS. 3A-3D). Chitosan sponges loaded with a single antibiotic or combinations of antibiotics, as above, were analyzed for their ability to inhibit bacterial growth. For the assays to determine inhibition of bacterial growth, the bacterial strains Pseudomonas aeruginosa and Staphylococcus aureus were used. Results showing the inhibition of Pseudomonas aeruginosa and Staphylococcus aureus are shown at Tables 2 and 3, respectively.
Drug activity of the aliquots was tested using a turbidity assay. Two different strains of bacteria were used in this study. Vancomycin samples were tested against Staphylococcus aureus and amikacin samples were tested against both Staphylococcus aureus and Pseudomonas aeruginosa. 200 μl of each aliquot was added to 1.8 ml of Mueller-Hinton II broth combined with 20 μl of S. aureus inoculum. Amikacin samples (200 μl) were also added to 1.75 ml of trypticase soy broth (TSB) and 50 μl of P. aeruginosa inoculum. Samples were incubated for 24 hours at 37 C. Absorbance measurements were recorded after incubation at a wavelength of 530 nm (A530).
Drug activity of the aliquots was tested using a turbidity assay. Samples were tested against Pseudomonas aeruginosa. […] Absorbance measurements at 530 nm on a spectrophotometer (BioTek).

A short description of the next series: in vivo. Particulars: goat.
Series [1] in a line: Amikacin and vancomycin elution from sterilized chitosan films. Format: physicochemical. Particulars: films soaked in 5 mg/ml antibiotic 2 minutes, 50 ml sterile saline, refreshed. On the procedure:
Agent elution from chitosan films was also analyzed (FIG. 1C). Sterilized chitosan films were loaded with amikacin and vancomycin. […] The elution was done in 50 ml of sterile saline solution and completely refreshed at each time point. The elution was carried out for 3 days. The values shown in FIG. 1C are expressed in μg/ml.
Elution data from chitosan films is provided at Table 4. […] The elution was done in 50 ml of sterile saline solution and completely refreshed at each time point. The elution was carried out for 3 days. The values shown on the graph are in μg/ml.
In one approach, samples were submerged into 15 ml amikacin solution (5 mg/ml) and allowed to hydrate for 2 minutes. Samples were then subjected to elution tests by submerging the films in 50 ml of 1× Phosphate Buffered Saline (PBS) and agitated in a 37 C incubator for the duration of the study. One ml aliquots were removed at 1, 3, 6, 24, 48, and 72 hours. Aliquots were tested for antibiotic concentration using a fluorescence polarization immunoassay technique (TDxFLx, Abbott Labs, Abbott Park, IL).

The nature of series [2]: Antibiotic elution from sterilized chitosan sponges in PBS (TDx). Format: physicochemical. Particulars: for effect of a co-loaded antibiotic on release from chitosan sponge: sponges hydrated with 5 mg/ml single or combined antibiotics, 20 ml PBS. On the procedure: In a preferred approach adopted for use in the goat wound treatment model described in Example 2, 2.5 grams of chitosan was dissolved in 247.5 ml of 1 (v/v) % blended acid solvent. The mixture contained 75%/25% lactic to acetic acid. This mixture was stirred for 4-6 hours at maximum allowable speed on a stir plate. The chitosan solution was filtered to remove undissolved chitosan. 25 ml of chitosan solution was pipetted into small aluminum weigh dishes ([…]). Each dish was frozen at […] freezer for 1 hour. The frozen samples were then placed into a freeze-dryer and lyophilize for 48 hours. Sponge samples were neutralized in 0.175 M NaOH— solution for ˜30-40 seconds. The sponges were rinsed repeatedly in containers filled with distilled water and pH changes were monitored until the rinsing water was neutral in pH. The re-hydrated sponges were then incubated at −80 C freezer for 1 hour and re-lyophilized for 24-48 hours. The sponges were then sterilized using low-dose gamma irradiation at Wright Medical (25-32 kGy).
Sponges were subjected to elution tests by submerging hydrated sponges into 20 ml of 1× Phosphate Buffered Saline (PBS), kept in a 37° C. incubator for the duration of the study. […] One ml aliquots were taken at 1, 3, 6, 24, 48, and 72 hours. Aliquots were tested for antibiotic concentration using a fluorescence polarization immunoassay technique (TDx, Abbott Labs, Abbott Park, IL).

A short description of series [3]: Antibiotic elution from sponge fragments retrieved from goats. It is filed as physicochemical, goat.
Description: Sponge fragments remained in 8 of the 10 goats treated with chitosan sponges.
Series [4] deals with S. aureus (Cowan I strain). Kind of series: Turbidity assay of film eluates against S. aureus. It is filed as cell-based, Staphylococcus aureus. Particulars: 48 and 72 hr eluate samples from chitosan films. The method, then: In other studies, antibiotic activity against S. aureus (Cowan I strain) was determined by utilizing the remaining antibiotic elution samples, in triplicate, in a turbidity assay. In this turbidity study, solution clarity after sufficient bacterial incubation with antibiotic eluates indicated bacterial inhibition due to antibiotic activity.
Blanks containing neither S aureus nor eluate samples, positive controls containing S aureus without antibiotic eluates, and negative controls containing both S aureus and high concentration antibiotic standards were mixed and incubated at 37° C. along with the eluate samples. After 24 hours of incubation, the tubes were vortexed and the absorbance at 530 nm of each inoculum solution was recorded using a spectrophotometer.

Setting [5] is: 5 mg/ml solution (sponge loading).

On to `NCC[C@H](O)C(=O)N[C@@H]1C[C@H](N)[C@@H](O[C@H]2O[C@H](CN)[C@@H](O)[C@H](O)[C@H]2O)[C@H](O)[C@H]1O[C@H]1O[C@H](CO)[C@@H](O)[C@H](N)[C@H]1O` [amikacin], for which the “Bacterial growth inhibition of P. aeruginosa” value in the series with Pseudomonas aeruginosa (after 72 hours) came out at 93.1%; in the series with Pseudomonas aeruginosa (after one hour) it was 98.7%. Also, the concentration at 6 h in “in vivo” worked out at 526 ± 478 ng/mL. In the series “in vivo”, this compound displayed a concentration at 12 h of 200 ng/mL. In the series “in vivo”, this compound yielded a concentration at 24 h of 200 ng/mL. In addition, in the series “in vivo”, the concentration at 36 h came out at 200 ng/mL. Moreover, the concentration at 42 h in “in vivo” came out at 200 ng/mL. Further, the “elution from sterilized chitosan films” value in series [1] (1 hour) came out at 50.63 ± 4.49 µg/mL; in series [1] (3 hours) it was 2.15 ± 1.13 µg/mL; in series [1] (6 hours), 3.17 ± 1.14 µg/mL; in series [1] (24 hours) it was 3.93 ± 0.57 µg/mL; in series [1] (48 hours) it was 4.7 ± 2.49 µg/mL; in series [1] (72 hours) it was 0.6 ± 0.48 µg/mL. Also, in series [2], the “effect of a co-loaded antibiotic on release from chitosan sponge” value (“effect of a co-loaded antibiotic” for short) is given as “vancomycin nor daptomycin affected the release of amikacin”. For the same compound, in series [3] (goat, 12 h), the “12 hr TDx reading, antibiotic elution from remaining sponge fragments, Mean” value was 0.60 µg/mL/g.
Consider `CCCCCCCCCC(=O)N[C@@H](Cc1c[nH]c2ccccc12)C(=O)N[C@H](CC(N)=O)C(=O)N[C@@H](CC(=O)O)C(=O)N[C@@H]1C(=O)NCC(=O)N[C@@H](CCCN)C(=O)N[C@@H](CC(=O)O)C(=O)N[C@H](C)C(=O)N[C@@H](CC(=O)O)C(=O)NCC(=O)N[C@H](CO)C(=O)N[C@@H]([C@H](C)CC(=O)O)C(=O)N[C@@H](CC(=O)c2ccccc2N)C(=O)O[C@@H]1C` [daptomycin], for which the “release from chitosan sponge compared with the other tested antibiotics” value in series [2] (72 hour time point, sponges hydrated with 5 mg/ml, one antibiotic per sponge) is recorded as “significantly less than the other two tested antibiotics”. In addition, in series [2], the “effect of a co-loaded antibiotic” value is reported as “Amikacin did not affect the release of daptomycin”. Further, in series [4], the “inhibition of S. aureus growth by film eluates” value is recorded as “active in inhibiting the growth of S. aureus”.
In turn, `CN[C@H](CC(C)C)C(=O)N[C@H]1C(=O)N[C@@H](CC(N)=O)C(=O)N[C@H]2C(=O)N[C@H]3C(=O)N[C@H](C(=O)N[C@H](C(=O)O)c4cc(O)cc(O)c4-c4cc3ccc4O)[C@H](O)c3ccc(c(Cl)c3)Oc3cc2cc(c3O[C@@H]2O[C@H](CO)[C@@H](O)[C@H](O)[C@H]2O[C@H]2C[C@](C)(N)[C@H](O)[C@H](C)O2)Oc2ccc(cc2Cl)[C@H]1O` [vancomycin] showed a concentration at 6 h in the series “in vivo” (setting [5]) of 1630 ± 646 ng/mL. In “in vivo” (setting [5]), this compound came in with a concentration at 12 h of 703 ± 348 ng/mL. The concentration at 24 h in “in vivo” (setting [5]) is 845 ± 539 ng/mL. Also, the concentration at 36 h in the series “in vivo” (setting [5]) is 740 ± 477 ng/mL. This compound came in with a concentration at 42 h in “in vivo” (setting [5]) of 275 ± 70 ng/mL. The “elution from sterilized chitosan films” value in series [1] (1 hour) amounted to 83.45 ± 17.25 µg/mL; in series [1] (3 hours) it was 19.35 ± 7.98 µg/mL; in series [1] (6 hours), 0.58 ± 0.88 µg/mL; in series [1] (24 hours), 2.53 ± 0.66 µg/mL; in series [1] (48 hours), 9.72 ± 1.92 µg/mL; in series [1] (72 hours), 6.13 ± 0.39 µg/mL. The “effect of a co-loaded antibiotic” value in series [2] is recorded as “amikacin did not affect the release of vancomycin”. Moreover, the “12 hr TDx reading, antibiotic elution from remaining sponge fragments, Mean” value in series [3] (mean of 4 goats, fragments retrieved after 42 hours in vivo, 20 ml sterile saline, 37° C., 12 hours) turned out to be 3.78 µg/mL/g. Besides, the “inhibition of S. aureus growth by film eluates” value in series [4] is “active in inhibiting the growth of S. aureus”.
